Reference: patent US8178506B2, “Oligomeric compounds and compositions for use in modulation of small non-coding RNAs” (Regulus Therapeutics Inc., priority 2003, dated 2012)
In the oligonucleotide strings, read from the 5' end, every base follows the letter of its sugar. An asterisk marks phosphorothioate; unmarked linkages are phosphodiester. Other units and linkages are bracketed, terminal groups are in braces. A string of capitals states the bases alone. e = 2'-O-(2-methoxyethyl) (MOE); [5mC] = 5-methylcytosine

Experiments:
mir-21 miRNA = experiment: pGL3-mir-21 sensor luciferase assay in HeLa cells; type: cell-based, human
Procedure, shortened: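 HeLa cells were transiently transfected with pGL3-Control carrying a mir-21-complementary site in the luciferase 3′UTR, which endogenous mir-21 silences. 2′-MOE oligomeric compounds were given at 10 or 50 nM, or at 1.9, 5.5, 16.7 and 50 nM for dose response. Luciferase was normalized to pRL-CMV and expressed as percent of the plasmid-only untreated control.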

DIO mice = experiment: Diet-induced obesity (DIO) mice; type: in vivo; conditions: for liver toxicity (plasma transaminase levels, weekly): 25 mg/kg s.c. twice weekly, 25 mg/kg
Procedure: As described, supra, the C57BL/6 mouse strain is reported to be susceptible to hyperlipidemia-induced atherosclerotic plaque formation, and when these mice are fed a high-fat diet, they develop diet-induced obesity (DIO). Accordingly, the DIO mouse model is useful for the investigation of obesity and development of agents designed to treat these conditions. In one embodiment of the present invention, oligomeric compounds targeting miRNAs were tested in the DIO model. Normal C57/BL6 male mice were fed a high fat diet (40% fat, 41% carbohydrate, 18% protein) for 12 weeks before the study began. DIO mice were then randomized by weight and insulin values. Initial body fat composition was determined by Dual X-ray Absorptiometry (DEXA) Scan. DIO mice were then subcutaneously injected with oligomeric compounds of the invention at a dose of 25 mg/kg, twice weekly. DIO mice were treated with oligomeric compounds ISIS Numbers 327901 and 340927 targeting mir-143, ISIS Numbers 327892 and 340926 targeting mir-131/mir-9, ISIS Numbers 327878 and ISIS Number 345349 targeting mir-203, and ISIS Numbers 327889 and 340925, targeting mir-23b. […] DEXA scans were also performed at weeks 0, 3 and 5 after treatment with the oligomeric compounds to assess the fat mass to lean mass ratio. The effects of target inhibition on levels of plasma glucose and insulin, liver transaminases, cholesterol and triglycerides, were also assessed weekly by tail bleed, and after the treatment period, mice were sacrificed and liver and kidney heart, as well as white adipose tissue (WAT) tissues collected. The mRNA expression levels of the Glut4, aP2, HSL and PPARγ marker genes are also assessed. […] Furthermore, some improvement in body composition (a reduction in body weight and fat mass) was observed.

[1] = Table 44, pGL3-mir-21 sensor-expressing HeLa cells, 10 nM
[2] = Table 44, pGL3-mir-21 sensor-expressing HeLa cells, 50 nM

Q: For “327901 (antisense eT*eG*eA*eG*e[5mC]*eT*eA*e[5mC]*eA*eG*eT*eG*e[5mC]*eT*eT*e[5mC]*eA*eT*e[5mC]*eT*e[5mC]*eA) [compound 327901]”, which “luciferase expression % UTC” value (mir-21 miRNA; [1]) is on record?
A: 74.2 % UTC

Q: What about the “luciferase expression % UTC” value (mir-21 miRNA; [2]) of the same substance?
A: 83.1 % UTC

Q: How did the “liver toxicity (plasma transaminase levels, weekly)” value (shortened to “liver toxicity”) (DIO mice) turn out when “TGAGCTACAGTGCTTCATCTCA [ISIS 327901] (chemistry not given here) [uniform 2′-MOE PS; targets mir-143]” was run?
A: did not appear to cause liver toxicity

Q: Which “liver toxicity” value (DIO mice) does the source give for “TGAGCTACAGTGCTTCATCTCA [ISIS 340927] (chemistry not given here) [5-10-7 2′-MOE gapmer PS; targets mature mir-143]” here?
A: did not cause significant increases in liver toxicity

Q: What about the insulin levels (DIO mice; two and four week time points, vs saline) of the same substance?
A: effective at reducing insulin levels

Q: For “327917 (antisense eT*e[5mC]*eA*eA*e[5mC]*eA*eT*e[5mC]*eA*eG*eT*e[5mC]*eT*eG*eA*eT*eA*eA*eG*e[5mC]*eT*eA) [compound 327917]”, which “luciferase expression % UTC” value (mir-21 miRNA; [1]) is on record?
A: 1037.6 % UTC

Q: And the “luciferase expression % UTC” value (mir-21 miRNA; [2])?
A: 847.5 % UTC

Q: What about the “luciferase expression % UTC” value (mir-21 miRNA; Table 50, pGL3-mir-21 sensor-expressing HeLa cells, 1.9 nM, normalized to pRL-CMV) of the same substance?
A: 522 % UTC

Q: And the “luciferase expression % UTC” value (mir-21 miRNA; Table 50, pGL3-mir-21 sensor-expressing HeLa cells, 5.5 nM, normalized to pRL-CMV)?
A: 1293 % UTC

Q: What about the “luciferase expression % UTC” value (mir-21 miRNA; Table 50, pGL3-mir-21 sensor-expressing HeLa cells, 16.7 nM, normalized to pRL-CMV) of the same substance?
A: 2470 % UTC

Q: And the “luciferase expression % UTC” value (mir-21 miRNA; Table 50, pGL3-mir-21 sensor-expressing HeLa cells, 50 nM, normalized to pRL-CMV)?
A: 4534 % UTC

Q: With “ACTTTCGGTTATCTAGCTTTA [ISIS 327892] (chemistry not given here) [uniform 2′-MOE PS; targets mir-131-2/mir-9]” as the substance, how does the “liver toxicity” value (DIO mice) read?
A: did not appear to cause liver toxicity
